Measured values as given in patent US20110092509A1, “Pharmaceutical Composition for Prevention or Treatment of Disease Associated with Tear Reduction” (Kissei Pharmaceutical, Co. Ltd., priority 2007, published 2011).
Structures can show the parent of a compound that is named as a salt.

Assays:
Assay type in all cases: in vivo, rabbit
Japanese white rabbits [1] = assay: Measurement of quantity of protein in tear in rabbits (Micro BCA Protein Assay); details: for Change in protein in tear: change before vs after instillation of 50 μL of 0.1 w/v % solution to both eyes, anesthetized male rabbits, mean
Experimental: (§1) Three male Japanese white rabbits (about 3 kg) were allocated to each group. Each 50 μL of ½ sulfate salt of Compound 1 (0.1% phosphate buffer solution, pH7.4), terbutaline sulfate (0.1% phosphate buffer solution, pH7.4) or a solvent thereof (a phosphate buffer, pH7.4) was administered to both eyes of the rabbit which was anesthetized with pentobarbital (40 mg/kg, i.v.). Two pieces each of pre-weighed filter paper (Wattman No. 41, 0.22 μm thick, 2.5×15 mm) were inserted to the lower conjunctival sac of the right or left eye, and the difference in weight of the filter papers before and after insertion (post-insertion weight−pre-insertion weight) was defined as the quantity of tear secretion. The quantity of tear secretion was measured for 5 min before drug administration and for 5 min at 5 min after drug administration. Fifty (50) μL of a local anesthetic agent, 0.4% oxybuprocaine hydrochloride (Santen Co.), was instilled into eyes 5 min before each measurement. Tear and the instilled local anesthetic were wiped immediately before the filter paper was inserted.
(§2) Filter papers recovered after each measurement were placed into tubes. A phosphate buffer (pH 7.4) (500 μL) was added to each of the tubes, and they were mixed by vortex mixer for 30 sec. After the filter papers were removed and the mixture was centrifuged at 470×g for 5 min, protein concentrations in supernatant were measured using Micro BCA Protein Assay Reagent Kit (Pierce Co.). The quantity of protein in tear was calculated based on the measured protein concentration and quantity of tear secretion. The difference in the quantity of tear secretion before administration of a solvent, ½ sulfate of Compound 1 or terbutaline sulfate and that after administration was defined as a change in the quantity of tear secretion or protein in tear, respectively. Each milligram of the change in the quantity of tear was taken as 1 μL.

[2] = system: PAS positive goblet cells; assay: Mucin secretion from conjunctiva in rabbits: count of PAS positive goblet cells by impression cytology; details: 0.1 w/v % instilled; for Count of PAS-positive goblet cells: percentage of the solvent group, decrease indicates facilitated mucin secretion from conjunctiva, mean
Experimental: In addition, at the same timing of measurement of the quantity of tear secretion, 3 mm diameter cellulose acetate filter paper was pressed on the conjunctiva for 30 sec. by impression cytology method, and periodic acid/Schiff (PAS) staining was performed with the recovered filter papers. After filter papers were cleared and embedded, the number of PAS positive goblet cells existing in a certain visual field of a microscope was counted.
Decreases in the count of PAS positive goblet cells indicate that mucin secretion from the conjunctiva is facilitated. Each value is mean of 4 animals, and ½ sulfate of Compound 1 increased extremely about 30% more in the quantity of tear secretion, about 200% more the quantity of protein in tear and about 50% more mucin secretion from conjunctiva in comparison with the solvent and terbutaline sulfate.

Japanese white rabbits [3] = assay: Measurement of quantity of tear secretion in rabbits (filter paper weight, ocular instillation); details: for Tear secretion: change before vs 5 min after instillation of 50 μL of 0.1 w/v % solution (phosphate buffer, pH7.4) to both eyes, anesthetized male rabbits, 5 min measurement, mean
Experimental: as §1, §2

[4] = 0.1 w/v % instilled, rabbits, '% more'

## C[C@H](Cc1ccc2c(c1)OC[C@H](C(=O)O)O2)NC[C@H](O)c1cccc(Cl)c1 [Compound N-5984, 6-[2-(R)-[[2-(R)-(3-chlorophenyl)-2-hydroxyethyl]amino]propyl]-2,3-dihydro-1,4-benzodioxine-2-(R)-carboxylic acid]
Japanese white rabbits [1]; 0.1 w/v % instilled, rabbits
  Effect on quantity of protein in tear (in words): extremely increased
Japanese white rabbits [1]
  Change in protein in tear: 2.72 µg
[2]; rabbits
  Effect on mucin secretion from conjunctiva (in words): extremely increased
[2]
  Count of PAS-positive goblet cells: 57.1%
Japanese white rabbits [3]; 0.1 w/v % instilled, rabbits
  Effect on quantity of tear secretion (in words): extremely increased
Japanese white rabbits [3]
  Tear secretion: 4.42 µL

## CN(C)C(=O)COc1ccc2c(c1)C[C@@H](NC[C@H](O)c1ccc(O)cc1)CC2 [½ sulfate of Compound 1, 2-[(2S)-2-[[(2R)-2-hydroxy-2-(4-hydroxyphenyl)ethyl]-amino]-1,2,3,4-tetrahydronaphthalen-7-yloxy]-N,N-dimethyl-acetamide]
Japanese white rabbits [1]; [4]
  Increase in quantity of protein in tear in comparison with the solvent and terbutaline sulfate: about 200%
Japanese white rabbits [1]
  Change in protein in tear: 2.57 µg
[2]; rabbits, '% more'
  Increase in mucin secretion from conjunctiva in comparison with the solvent and terbutaline sulfate: about 50%
[2]
  Count of PAS-positive goblet cells: 64.8%
Japanese white rabbits [3]; [4]
  Increase in quantity of tear secretion in comparison with the solvent and terbutaline sulfate: about 30%
Japanese white rabbits [3]
  Tear secretion: 4.87 µL

## CC(C)(C)NCC(O)c1cc(O)cc(O)c1 (stereo not drawn) [Terbutaline sulfate, reference compound]
Japanese white rabbits [1]
  Change in protein in tear: 1.04 µg
[2]
  Count of PAS-positive goblet cells: 77.3%
Japanese white rabbits [3]
  Tear secretion: 3.80 µL
